Source: PubChem BioAssay (NCI)
“And” between values parts separate entries of the source, which are not always exact repeats. Equal entries are not always repeated.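 48-hour exposure; five concentrations; linearly interpolated endpoints. The concentration for 50% growth inhibition is given as GI50. TGI marks complete inhibition of growth.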

Key:
Assay in all cases: growth of human tumour cells (NCI), 48 h
[1] = tested on: A498 renal
[2] = tested on: COLO 205 colon
[3] = tested on: HL-60(TB) leukemia
[4] = tested on: HT29 colon
[5] = tested on: LOX IMVI melanoma
[6] = tested on: MDA-N
[7] = tested on: NCI-H23 lung
[8] = tested on: NCI-H522 lung
[9] = tested on: SF-268 CNS
[10] = tested on: SF-539 CNS
[11] = tested on: SNB-75 CNS
[12] = tested on: SW-620 colon

Compound	TGI [1]	TGI [2] [µM]	TGI [3] [µM]	TGI [4] [µM]	TGI [5]	TGI [6]	TGI [7] [µM]	TGI [8] [µM]	TGI [9] [µM]	TGI [10] [µM]	TGI [11]	TGI [12] [µM]	GI50 [7]
c1ccc2c(c1)[C@@H]1O[C@@H]1[C@@]13O[C@@]21[C@H]1O[C@H]1c1ccccc13	30.7 µM	32.8	41	51.9	27.7 µM	32.6 µM	40.1	25.4	28.3	34.9	27.2 µM	39.5	–
COc1ccc2c(-c3csc(-c4c[nH]c5ccccc45)n3)c[nH]c2c1	21.6 µM	> 57.7	> 100	7.32	> 31.9 µM	> 100 µM	> 66.5	25.4	26	65.5	91.7 µM	> 100	–
CC(=O)OC1COC(n2c(N)c(C#N)c(-c3ccccc3)c(C#N)c2=S)C(OC(C)=O)C1OC(C)=O (stereo not drawn)	66 µM and 79.3 µM	> 100	44.8	> 100	79 µM and 76.7 µM	88.2 µM and 88.3 µM	> 100	> 100	> 100	> 100	86.8 µM and > 100 µM	> 100	33.1 µM and 73.2 µM
CC(C)(CO)Nc1c(O)c2c(c(O)c1Cl)C(=O)C=CC2=O	3.36 µM	2.56	0.561	3.4	1.19 µM	2.26 µM	3.37	0.928	6.03	2.7	2.6 µM	1.37	–
CC(=O)c1c2c(cc3c1CCC3)CCC2	> 100 µM	> 100	> 100	> 100	> 100 µM	> 100 µM	> 100	> 100	> 100	> 100	> 100 µM	> 100	–
COc1ccc(C(OCC2OC(n3ccc(Oc4c(F)c(F)c(F)c(F)c4F)nc3=O)CC2OP(OCCC#N)N(C(C)C)C(C)C)(c2ccccc2)c2ccc(OC)cc2)cc1 (stereo not drawn)	> 100 µM	> 100	> 100	> 100	> 100 µM	> 100 µM	> 100	> 100	> 100	> 100	> 100 µM	> 100	–
NC(=O)c1nnc2c(F)cccc2c1N	> 100 µM	> 100	> 100	> 100	> 100 µM	> 100 µM	> 100	> 100	> 100	> 100	> 100 µM	> 100	–
O=C1CSC2=NC3=C(COC/C3=C\c3ccc(F)cc3)C(c3ccc(F)cc3)N12 (stereo not drawn)	> 100 µM	> 100	34.5	–	> 100 µM	> 100 µM	> 100	> 100	> 100	> 100	> 100 µM	> 100	–
CC(=O)OCC12C(OC(C)=O)C[C@@H](C)C3(CC(c4ccoc4)OC3=O)C1CCC(OC(C)=O)C21CO1 (stereo partly drawn)	> 100 µM	> 100	> 100	> 100	> 100 µM	> 100 µM	> 100	> 100	> 100	> 100	> 100 µM	> 100	–
CCOC(=O)CCC1(C(=O)O[C@@H]2C[C@H](C)CC[C@H]2C(C)C)CCCCC1=O (stereo partly drawn)	> 100 µM	> 100	57.6	> 100	> 100 µM	> 100 µM	> 100	> 100	> 100	> 100	> 100 µM	> 100	–
O=C1CSC(c2cc3cc(Br)ccc3nc2Cl)N1c1ccc(F)c(Cl)c1 (stereo not drawn)	> 50 µM	> 50	> 50	> 50	> 50 µM	> 50 µM	> 50	> 50	> 50	> 50	> 50 µM	> 50	–
CC1C/C(=C\c2ccc(O)c(O)c2)C(=O)/C(=C/c2ccc(O)c(O)c2)C1 (stereo not drawn)	12.8 µM	32.2	8.42	34.2	23.4 µM	15.7 µM	12.9	3.58	32.1	13	16.7 µM	34.6	–
O=C1CCc2c(sc3ncnc(Nc4cccc(Br)c4)c23)C1	31.4 µM	20.8	7.56	27	12.9 µM	7.69 µM	8.24	6.17	15.2	13.2	12.5 µM	11.6	–
COC1OC(=O)C(OC)C(OC)C1OC (stereo not drawn)	> 100 µM	> 100	> 100	> 100	> 100 µM	> 100 µM	–	> 100	> 100	> 100	> 100 µM	> 100	–
O=C(O)CCC(NC(=O)/C(=C/c1ccccc1)NC(=O)c1ccccc1)C(=O)O (stereo not drawn)	> 100 µM	> 100	> 100	> 100	> 100 µM	> 100 µM	> 100	> 100	> 100	> 100	> 100 µM	> 100	–
Cc1cc(S(=O)(=O)Nc2n[nH]c(N)n2)c(S)cc1Cl	> 10 µM	> 10	> 10	> 10	> 10 µM	> 10 µM	> 10	> 10	> 10	> 10	> 10 µM	> 10	–
N#Cc1nc(-c2ccccn2)c(-c2ccccn2)nc1C#N	8.19 µM	10.6	> 29.2	14.4	> 27.5 µM	> 100 µM	16.7	16.6	7.12	21.5	22.9 µM	> 43.5	–
CN1CCN(C2CC(=O)c3c(Cl)sc(Cl)c32)CC1 (stereo not drawn)	> 75 µM	> 53.4	46	33.7	3.83 µM	35 µM	30.3	13.3	> 31.1	49.6	41.5 µM	22.2	–
CCOC(=O)c1sc2[n+](c1C)C(=O)/C(=C/c1ccccc1Cl)S2	> 56.8 µM	9.85	> 62.9	28.9	19.1 µM	0.565 µM	27.7	7.65	> 53.5	15.2	> 54.3 µM	46.5	–

Compound	TGI [1]	TGI [2] [µM]	TGI [3] [µM]	TGI [4] [µM]	TGI [5]	TGI [6]	TGI [7] [µM]	TGI [8] [µM]	TGI [9] [µM]	TGI [10] [µM]	TGI [11]	TGI [12] [µM]	GI50 [7]
C/C(=N\Nc1nc2ccccc2n1C)c1ccncn1	5.79 µM	> 100	0.0439	30.3	–	> 100 µM	> 100	> 31.4	> 100	21.8	> 70.9 µM	> 47.6	–
COc1nc2ncc([C@@H](O)[C@H](O)CO)nc2c(=O)[nH]1	> 100 µM	> 100	> 100	> 100	> 100 µM	> 100 µM	–	> 100	> 100	> 100	> 100 µM	> 100	–
CCOC(=O)/C=C/C(Br)=C(Br)/C=C/C(=O)OCC	74.3 µM	30.8	26.1	29.1	7.44 µM	27.3 µM	30	7.14	40.4	–	26 µM	5.31	–
CSC(=N/N=C(\C)c1ccc(S(=O)(=O)N(C)c2ccccc2)cc1)SC	> 100 µM	> 100	> 100	> 100	> 100 µM	> 100 µM	> 100	> 100	> 100	> 100	> 100 µM	> 100	–
CN1C(=O)[C@](C)(Cc2ccc(F)cc2)N(C(=O)OC(C)(C)C)[C@@H]1C(C)(C)C	70 µM	39.7	26.2	45.6	53 µM	> 100 µM	> 100	46.9	> 100	> 100	> 100 µM	> 100	–
Cc1nc(C)c(C(=O)NNC(=O)c2ccccc2)cc1C(=O)NNC(=O)c1ccccc1	> 100 µM	> 100	> 100	> 100	> 100 µM	> 100 µM	> 100	> 100	> 100	> 100	> 10 µM	> 100	–
N#Cc1c(NC(=S)Nc2ccccc2)sc2c1CCCC2	> 100 µM	> 100	> 100	> 100	> 100 µM	> 100 µM	> 100	> 100	> 100	–	> 100 µM	> 100	–
Cc1cccc2c1C(=O)/C(=C/c1ccccc1C(=O)O)C2	> 100 µM	> 100	> 100	> 100	> 100 µM	> 100 µM	> 100	> 100	> 100	> 100	> 100 µM	> 100	–
COc1ccc(C2=C(N)c3cc(OC)ccc3C2=O)cc1	> 100 µM	> 100	> 100	> 100	> 100 µM	> 100 µM	> 100	> 100	> 100	> 100	> 100 µM	> 100	–
Nc1nc(Cl)cc(NCC2CC(O)(CO)C2)n1 (stereo not drawn)	> 100 µM	> 100	> 100	> 100	> 100 µM	> 100 µM	> 100	> 100	> 100	> 100	> 100 µM	> 100	–
NC(=O)c1ccc(S(=O)(=NS(=O)(=O)c2ccccc2)c2ccc(C(N)=O)cc2)cc1	> 100 µM	> 100	> 100	> 100	> 100 µM	> 100 µM	> 100	> 100	> 100	> 100	> 100 µM	> 100	–
CC1=CCC(=O)[C@]2(C)C(CC(=O)O)[C@]3(C)C4=C(C)C(c5ccoc5)C[C@@H]4O[C@@H]3[C@H](O)[C@@H]12 (stereo partly drawn)	> 100 µM	> 100	> 100	–	> 100 µM	> 100 µM	> 100	> 100	> 100	> 100	> 100 µM	> 100	–
CC(=O)N1C(=O)/C(=C\C(=O)c2ccc(Cl)cc2)c2ccccc21	69.3 µM	26.7	5.24	20.7	5.9 µM	30.9 µM	31.7	26.9	40.5	37.2	35 µM	61.1	–
COc1ccc(C2CCc3c(cnc4nc(N)nc(N)c34)C2)cc1 (stereo not drawn)	> 100 µM	> 100	> 100	> 100	> 100 µM	> 100 µM	–	44.9	> 100	> 100	26.7 µM	> 100	–
C[C@@H]1CC(=O)[C@@]2(C)[C@](O)(CCC3O[C@]32C)[C@@]12CC(c1ccoc1)OC2=O (stereo partly drawn)	> 100 µM	> 100	62.8	> 100	> 100 µM	> 100 µM	> 100	> 100	–	> 100	> 100 µM	> 100	–
COc1ccc(Cn2nc(OCc3ccccc3)c3cc([N+](=O)[O-])ccc32)cc1	> 100 µM	–	> 100	> 100	> 100 µM	> 100 µM	> 100	> 100	> 100	> 100	> 100 µM	> 100	–
Cc1nc2cccc(F)c2c(=O)n1-c1nnc(C2CC2)s1	–	> 10	> 10	> 10	> 10 µM	> 10 µM	> 10	> 10	> 10	> 10	> 10 µM	> 10	–
O=C(OCC(OC(=O)c1ccccc1)C1CC(C(O)C2CCCCC2)C(=O)O1)c1ccccc1 (stereo not drawn)	> 100 µM	> 100	37	–	> 100 µM	> 100 µM	> 100	> 100	> 100	66.1	> 100 µM	> 100	–
